The supplement of paper PMC10307832

Compound: C[C@]1(c2nc3c(C(N)=O)cccc3[nH]2)CCCN1 [Veliparib] + CS(=O)(=O)N1CCN(Cc2cc3nc(-c4cccc5[nH]ncc45)nc(N4CCOCC4)c3s2)CC1 [Pictilisib] (partner 1 µM)
Test: relative viability (nuclei count vs DMSO), 5 days (fraction); higher = more cells survive
Conditions: first compound 0.02 µM
How it was run: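 Relative viability is defined as nuclei in treated wells over nuclei in vehicle wells. Duplicate plates were run and medians reported. Lung cancer cell lines in 1536-well plates were dosed by pin tool one day after seeding, with one drug or with a fixed anchor-drug dose plus five library-drug doses (not always all listed) in √10 steps, and nuclei were counted after 5 days.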

| Cell Line | relative viability |
| --- | --- |
| HCC-78 | 0.226 |
| EKVX | 0.427 |
| PC-14 | 0.624 |
| LXF-289 | 0.78 |
| NCI-H1651 | 0.572 |
| HCC-827 | 0.936 |
| LCLC-103H | 0.685 |
| RERF-LC-KJ | 0.59 |
| NCI-H3122 | 0.576 |
| BEN | 0.517 |
| LCLC-97TM1 | 0.155 |
| NCI-H2085 | 0.468 |
| A-427 | 0.676 |
| NCI-H727 | 0.195 |
| NCI-H838 | 0.441 |
| NCI-H1793 | 0.375 |
| 201T | 0.682 |
| LOU-NH91 | 0.506 |
| NCI-H1666 | 0.357 |
| NCI-H650 | 0.968 |
| NCI-H1993 | 0.772 |
| HCC-44 | 0.63 |
| NCI-H647 | 0.347 |
| NCI-H2126 | 0.531 |
| NCI-H1755 | 0.403 |
| PC-3 [JPC-3] | 0.774 |
| NCI-H1792 | 0.322 |
| NCI-H2087 | 0.609 |

Same assay, conditions: first compound 0.06325 µM

| Cell Line | relative viability |
| --- | --- |
| NCI-H358 | 0.37 |
| HCC-78 | 0.222 |
| EKVX | 0.464 |
| EPLC-272H | 0.227 |
| LK-2 | 0.486 |
| PC-14 | 0.513 |
| LXF-289 | 0.778 |
| LC-2-ad | 0.431 |
| NCI-H1651 | 0.601 |
| HCC-827 | 0.957 |
| LCLC-103H | 0.615 |
| RERF-LC-KJ | 0.529 |
| NCI-H3122 | 0.599 |
| BEN | 0.572 |
| LCLC-97TM1 | 0.224 |
| NCI-H2085 | 0.463 |
| A-427 | 0.734 |

| Cell Line | relative viability |
| --- | --- |
| NCI-H727 | 0.33 |
| NCI-H838 | 0.455 |
| NCI-H1793 | 0.306 |
| 201T | 0.623 |
| LOU-NH91 | 0.436 |
| NCI-H1666 | 0.334 |
| NCI-H650 | 0.855 |
| ChaGo-K-1 | 0.55 |
| NCI-H1993 | 0.826 |
| HCC-44 | 0.566 |
| NCI-H647 | 0.368 |
| NCI-H2126 | 0.452 |
| NCI-H1755 | 0.415 |
| PC-3 [JPC-3] | 0.689 |
| NCI-H1792 | 0.212 |
| NCI-H2087 | 0.783 |

Same assay, conditions: first compound 0.2 µM

| Cell Line | relative viability |
| --- | --- |
| NCI-H358 | 0.38 |
| HCC-78 | 0.267 |
| EKVX | 0.465 |
| EPLC-272H | 0.283 |
| LK-2 | 0.618 |
| PC-14 | 0.616 |
| LXF-289 | 0.768 |
| LC-2-ad | 0.428 |
| NCI-H1651 | 0.559 |
| HCC-827 | 1.01 |
| LCLC-103H | 0.577 |
| RERF-LC-KJ | 0.592 |
| NCI-H3122 | 0.673 |
| BEN | 0.594 |
| LCLC-97TM1 | 0.215 |
| NCI-H2085 | 0.39 |
| A-427 | 0.675 |

| Cell Line | relative viability |
| --- | --- |
| NCI-H727 | 0.433 |
| NCI-H838 | 0.418 |
| NCI-H1793 | 0.343 |
| 201T | 0.682 |
| LOU-NH91 | 0.563 |
| NCI-H1666 | 0.625 |
| NCI-H650 | 0.926 |
| ChaGo-K-1 | 0.86 |
| NCI-H1993 | 0.822 |
| HCC-44 | 0.577 |
| NCI-H647 | 0.436 |
| NCI-H2126 | 0.507 |
| NCI-H1755 | 0.479 |
| PC-3 [JPC-3] | 0.774 |
| NCI-H1792 | 0.301 |
| NCI-H2087 | 0.726 |

Same assay, conditions: first compound 0.6325 µM

| Cell Line | relative viability |
| --- | --- |
| NCI-H358 | 0.315 |
| HCC-78 | 0.236 |
| EKVX | 0.361 |
| EPLC-272H | 0.278 |
| LK-2 | 0.607 |
| PC-14 | 0.673 |
| LXF-289 | 0.746 |
| LC-2-ad | 0.464 |
| NCI-H1651 | 0.457 |
| HCC-827 | 0.984 |
| LCLC-103H | 0.666 |
| RERF-LC-KJ | 0.563 |
| NCI-H3122 | 0.552 |
| BEN | 0.577 |
| NCI-H2085 | 0.415 |
| A-427 | 0.632 |

| Cell Line | relative viability |
| --- | --- |
| NCI-H727 | 0.296 |
| NCI-H838 | 0.335 |
| NCI-H1793 | 0.261 |
| 201T | 0.678 |
| LOU-NH91 | 0.528 |
| NCI-H1666 | 0.427 |
| NCI-H650 | 0.743 |
| ChaGo-K-1 | 0.914 |
| NCI-H1993 | 0.807 |
| HCC-44 | 0.544 |
| NCI-H647 | 0.447 |
| NCI-H2126 | 0.458 |
| NCI-H1755 | 0.434 |
| PC-3 [JPC-3] | 0.69 |
| NCI-H1792 | 0.263 |
| NCI-H2087 | 0.65 |

Same assay, conditions: first compound 2 µM

| Cell Line | relative viability |
| --- | --- |
| NCI-H358 | 0.342 |
| HCC-78 | 0.231 |
| EKVX | 0.397 |
| EPLC-272H | 0.0962 |
| LK-2 | 0.625 |
| PC-14 | 0.662 |
| LXF-289 | 0.755 |
| LC-2-ad | 0.497 |
| NCI-H1651 | 0.558 |
| HCC-827 | 1.06 |
| LCLC-103H | 0.651 |
| RERF-LC-KJ | 0.454 |
| NCI-H3122 | 0.611 |
| BEN | 0.628 |
| LCLC-97TM1 | 0.235 |
| NCI-H2085 | 0.396 |
| A-427 | 0.625 |

| Cell Line | relative viability |
| --- | --- |
| NCI-H727 | 0.431 |
| NCI-H838 | 0.457 |
| NCI-H1793 | 0.356 |
| 201T | 0.658 |
| LOU-NH91 | 0.531 |
| NCI-H1666 | 0.49 |
| NCI-H650 | 0.809 |
| ChaGo-K-1 | 0.718 |
| NCI-H1993 | 0.805 |
| HCC-44 | 0.644 |
| NCI-H647 | 0.265 |
| NCI-H2126 | 0.537 |
| NCI-H1755 | 0.432 |
| PC-3 [JPC-3] | 0.758 |
| NCI-H1792 | 0.332 |
| NCI-H2087 | 0.871 |
